{"source": "a melting point compilation (Tetko et al.; mined from patent text by program, amines drawn as free bases though some values may be those of a salt)"}
{"units": {"melting point": "°C"}}
{"smiles": "O=C1c2ccccc2C(=O)N1CCN1CCC(=C(c2ccccc2)c2ccccc2)CC1", "melting point": "106 to 108"}
{"smiles": "O=c1c(O)coc2ccccc12", "melting point": "178 to 179"}
{"smiles": "C=CCn1c(SC(Cl)=C(Cl)C#N)nnc1C(F)(F)F", "melting point": "45 to 48"}
{"smiles": "CC#CCOc1cc(Cl)ncn1", "melting point": 43.5}
{"smiles": "CCCCCCCCCCCCCCCCNc1ccc(C(=O)OCC(CO)OC(C)=O)cc1", "note": "(configuration not stated)", "melting point": 67}
{"smiles": "OC1(c2cccs2)C(c2ccccc2Cl)SC2=NCCCCN21", "note": "(configuration not stated)", "melting point": "120 to 122"}
{"smiles": "COc1ccc2sc(Cc3ccc(Cl)cc3)nc2c1", "melting point": "83 to 85"}
{"smiles": "NNc1nc2cc(Cl)c(Cl)cc2nc1Cl", "melting point": "< 260"}
{"smiles": "O=C(O)CNc1nccc(-c2nc(=O)c3ccccc3s2)n1", "melting point": "283 to 284"}
{"smiles": "CC(C)(C)C(COC(N)=O)(NC(=O)c1ccccc1)c1c[nH]c2ccc(Br)cc12", "note": "(configuration not stated)", "melting point": 187}
{"smiles": "Cn1c(=O)c(-c2ccc(Cl)cc2Cl)cc2c3cc(-c4csc(CO)n4)ccc3n(C)c21", "melting point": "261 to 262"}
{"smiles": "Cc1cc(C)n2nc(C)cc2n1", "melting point": "70 to 73"}
{"smiles": "O=C1CC(=O)OC(CCc2ccccc2)(C2CCCC2)C1", "note": "(configuration not stated)", "melting point": "96 to 99"}
{"smiles": "NS(=O)(=O)CCCCCCl", "melting point": 62}
{"smiles": "C=CCCCCCCCCN=C=O", "melting point": "94 to 97"}
{"smiles": "Cc1cc(-c2cnn3c(C(F)(F)F)cc(-c4ccc(F)c(Cl)c4)nc23)ccn1", "melting point": 292}
{"smiles": "CC(=O)OC(c1nc2c(C(F)(F)F)cccc2c(O)c1C(=O)Nc1nccs1)C(C)C", "note": "(configuration not stated)", "melting point": 242}
{"smiles": "OC(Cc1ccncc1)C(Cl)(Cl)Cl", "note": "(configuration not stated)", "melting point": "166 to 168"}
{"smiles": "COC(=O)c1sc(C)c(Br)c1OC(=S)N(C)C", "melting point": "152 to 154"}
{"smiles": "O=Cc1ccc2c(c1)Sc1ccccc1CC2", "melting point": "55.5 to 56.5"}
{"smiles": "CC(C)S(=O)(=O)Nc1ccc([C@@H](C)C(=O)N[C@@H](C)C(N)=O)cc1", "melting point": "132 to 135"}
{"smiles": "CCOC(=O)C1COc2c(C(=O)c3ccccc3)cc(Br)cc21", "note": "(configuration not stated)", "melting point": "100 to 101"}
{"smiles": "CCNc1c(C#N)cnn1-c1c(F)c(F)c(C(F)(F)F)c(F)c1F", "melting point": 168}
{"smiles": "CSCc1cc(C(C)=O)c(O)cc1OCCCCCCC#N", "melting point": 78}
{"smiles": "CN(C)C=CC=C(C#N)c1cccnc1", "melting point": "117 to 120"}
{"smiles": "CCCCn1c(COc2ccccc2)nc2c(N)nc3ccccc3c21", "melting point": "172 to 173"}
{"smiles": "CCOC(=O)c1ccc(Cl)nn1", "melting point": "145 to 150"}
{"smiles": "CCOC(=O)Cn1c(CC)nc2c(O)cccc21", "melting point": "148 to 150"}
{"smiles": "CCN(CC)Cc1ccc(CN2C(=O)COc3c(C)cc(C=C4SC(=S)NC4=O)cc32)cc1", "melting point": "250 to 252"}
{"smiles": "CNc1nc(-c2cccc(NCc3ccccc3)c2)c2cc(OC)c(OC)cc2n1", "melting point": "146 to 148"}
{"smiles": "COc1ccc(OC)c2c1C(=O)c1c(C)oc(C)c1C2=O", "melting point": "227 to 228"}
{"smiles": "O=S1CCOCC1c1ccc(Cl)c(Cl)c1", "note": "(configuration not stated)", "melting point": "100 to 103"}
{"smiles": "CC(C)(C)C(=O)OCc1cc2c(OCC3CO3)cccc2[nH]1", "note": "(configuration not stated)", "melting point": "129 to 131"}
{"smiles": "Cc1nc(-c2ccc(C#N)cc2)sc1C(=O)N1CO[C@@](Cn2cncn2)(c2ccc(F)cc2F)[C@H]1C", "melting point": "200 to 201"}
{"smiles": "CC1(OC(=O)c2ccco2)C=CC(COC(=O)c2ccco2)=CN1", "note": "(configuration not stated)", "melting point": "118 to 119"}
{"smiles": "CCc1ccc(Nc2c(F)c(F)cc(F)c2F)c(CC(=O)OC(C)(C)C(=O)O)c1", "melting point": "104 to 108"}
{"smiles": "CCSC(=S)SC1NC(=O)C1C(C)C", "note": "(configuration not stated)", "melting point": "65 to 66"}
{"smiles": "CC(C(=O)O)c1ccc(-c2ccccc2F)c(F)c1", "note": "(configuration not stated)", "melting point": "120 to 123"}
{"smiles": "Nc1nc(NCC(O)(c2ccccc2)c2ccccc2)c2ncn(C3OC(CO)C(O)C3O)c2n1", "note": "(configuration not stated)", "melting point": "138 to 140"}
{"smiles": "c1ccc(Cc2ncc(-c3cnc(-c4ccccc4)nc3)[nH]2)cc1", "melting point": 235}
{"smiles": "N[C@H]1CC[C@H](CN2CCC(=C3c4ccccc4Sc4ccc(Cl)cc43)CC2)CC1", "melting point": "128 to 135"}
{"smiles": "Cc1ccc(N(c2ccccc2)c2ccc(-c3ccc(N(c4ccccc4)c4ccc(C)cc4)cc3)cc2)cc1", "melting point": "163 to 164"}
{"smiles": "CS(=O)(=O)c1ccc(-c2cnn(CC(F)(F)F)c(=O)c2Cc2cccc(F)c2)cc1", "melting point": "58 to 62"}
{"smiles": "COc1cccc(-c2ccc3c(c2)NC(=O)OC3(C)C)c1", "melting point": "167 to 168"}
{"smiles": "CC(C)(C(=O)O)C(=O)NCc1cn(C(c2ccccc2)(c2ccccc2)c2ccccc2)cn1", "melting point": "174 to 175"}
{"smiles": "CC(=O)OC1CSC(Oc2cncc(S(=O)(=O)c3ccc(F)cc3)c2)C(OC(C)=O)C1OC(C)=O", "note": "(configuration not stated)", "melting point": 128}
{"smiles": "COc1ccc(C(=O)Cc2cc(OC)cc(Br)c2OC)cc1", "melting point": "91 to 93"}
{"smiles": "CC1(C)OCC(COc2ccc(-c3ccc4cc(C(=O)O)ccc4c3)cc2C23CC4CC(CC(C4)C2)C3)O1", "note": "(configuration not stated)", "melting point": 287}
{"smiles": "OCC1OC(n2c(Cl)nc3cc(Cl)c(F)cc32)C(O)C1O", "note": "(configuration not stated)", "melting point": "170 to 172"}
{"smiles": "CCCCCCc1cc2c(cc1CNCC(=O)O)C(=O)CC2", "melting point": 70}
{"smiles": "CCCc1ccc(S(=O)(=O)Nc2ccc3oncc3c2)cc1", "melting point": "130 to 131"}
{"smiles": "CCC(Cc1ccc(OC)c(S(N)(=O)=O)c1)NC(=O)C(F)(F)F", "note": "(configuration not stated)", "melting point": "189 to 192"}
{"smiles": "Cc1ccnc2c1n(C(C)C)c(=O)n2-c1ccc(Oc2nc3cccnc3n2C)cc1", "melting point": "270 to 271"}
{"smiles": "CCc1nn2c(N3CCNCC3)cc(C)nc2c1S(=O)(=O)c1ccccc1", "melting point": "150 to 151"}
{"smiles": "CS(=O)(=O)c1ccc(-c2cnn(C3CCC3)c(=O)c2-c2ccc(F)cc2)cc1", "melting point": "202 to 203"}
{"smiles": "Cc1c(Cl)n(C2OC(CO)C(O)C2O)c2cc(Cl)c(Cl)cc12", "note": "(configuration not stated)", "melting point": "190 to 191"}
{"smiles": "O=C(N[C@H]1CCCNC1=O)c1cc(F)cc(F)c1", "melting point": "198 to 199"}
{"smiles": "CCOC(=O)Cc1c(C)nc(SCc2ccc(OC)cc2)n1C", "melting point": "158 to 160"}
{"smiles": "CCOC(=O)C1=C(N)N=C(OCC)C(C(=O)OCC)C1c1cccc(C#N)c1", "note": "(configuration not stated)", "melting point": 159}
{"smiles": "N#Cc1ccc(-c2cccc(OS(N)(=O)=O)c2)cc1Cn1cncn1", "melting point": "137 to 138"}
{"smiles": "COc1cccc(Cc2cc3cccc(-c4cccc(C(=O)NCCN5CCCC5)c4)c3o2)c1", "melting point": "101 to 102"}
{"smiles": "CC(OCc1ccc2ccccc2c1)(C(=O)Cl)C(F)(F)F", "note": "(configuration not stated)", "melting point": "39 to 43"}
{"smiles": "C=CCc1cc(-c2cc(CC)cc(CC=C)c2O)ccc1O", "melting point": "47 to 48"}
{"smiles": "COc1cc2c(cc1S(=O)(=O)c1ccc(C)cc1)[C@@H](N1CCCC1=O)[C@H](O)C(C)(C)O2", "note": "(relative stereo)", "melting point": "263 to 265"}
{"smiles": "O=C1CCCN1Nc1ccncc1", "melting point": "177 to 180"}
{"smiles": "Cc1cc(C)cc(C(=O)c2[nH]c(=O)[nH]c(=O)c2C(C)C)c1", "melting point": "149 to 150"}
{"smiles": "O=C(NCCc1ccccn1)Nc1cc(N2CC(c3ccccc3)CC2=O)ccn1", "note": "(configuration not stated)", "melting point": "202 to 204"}
{"smiles": "CCN1CCN(c2ccnc3c(NC(=O)c4c(Cl)cccc4Cl)cccc23)C1=O", "melting point": "249 to 253"}
{"smiles": "CCOc1nn(Cc2ccc(OCc3nc(-c4ccccc4)ccc3Cl)cc2)cc1CCC(=O)O", "melting point": "120 to 121"}
{"smiles": "CC(C)(C)OC(=O)CN1C(=O)C(N2C(=O)c3ccccc3C2=O)CCc2ccccc21", "note": "(configuration not stated)", "melting point": "194 to 197"}
{"smiles": "CCOC(=O)c1cc(-n2c(OC)nc(C(F)(F)F)c(F)c2=O)c(F)cc1Cl", "melting point": "69 to 72"}
{"smiles": "c1ccc2c(c1)Cn1cnnc1CN2", "melting point": "232 to 237"}
{"smiles": "Nc1snc2nc(N3CCCC3)sc12", "melting point": "262 to 264"}
{"smiles": "OC(CSc1ncnc2[nH]ncc12)CN1CCN(C(c2ccc(Cl)cc2)c2ccc(Cl)cc2)CC1", "note": "(configuration not stated)", "melting point": "115 to 118"}
{"smiles": "CCOC(=O)CCCCn1cnc2ccncc21", "melting point": "45 to 47"}
{"smiles": "CC(=O)c1cn(Cc2ccccc2)c(=O)[nH]c1=O", "melting point": "196 to 197"}
{"smiles": "CCOc1ccc(C(=O)NCc2ccc3c(c2)C(=O)N(C2(C)CCC(=O)NC2=O)C3=O)nn1", "note": "(configuration not stated)", "melting point": "126 to 128"}
{"smiles": "CN1CCN(C)c2c(N)cccc2C1=O", "melting point": "165 to 166"}
{"smiles": "Cc1cc(C(=O)c2[nH]c3cc(Cl)ccc3c2NC(=O)CC(C)C)ccc1Cl", "melting point": "202 to 203"}
{"smiles": "Cn1nc(C(F)(F)F)n(-c2ccc(F)cc2)c1=S", "melting point": "94 to 96"}
{"smiles": "Cc1cc(Br)cnc1NCCCNC1=NS(=O)N=C1NCc1ccncn1", "note": "(configuration not stated)", "melting point": "171 to 172"}
{"smiles": "Cc1ccc(S(=O)(=O)Nc2nc(-c3cccc(C#N)c3)cs2)cc1", "melting point": "> 250"}
{"smiles": "COc1ccc(C(N)=Nc2ccc(C(=O)O)cc2)cc1C12CC3CC(CC(C3)C1)C2", "melting point": "263 to 265"}
{"smiles": "c1ccc2nc3c(nc2c1)OCC1CCCCN31", "note": "(configuration not stated)", "melting point": "141 to 143"}
{"smiles": "Cc1ccc(N2CC(COc3ccc(C(=O)O)cc3)CC2=O)cc1", "note": "(configuration not stated)", "melting point": "212 to 213"}
{"smiles": "O=C1Cc2cc(I)ccc2N1", "melting point": "190 to 192"}
{"smiles": "COC(=O)c1ccc(O)c(-n2cccc2C=O)c1", "melting point": "147 to 148"}
{"smiles": "COC(=O)COc1ccc(C(=O)CCN2CCN(c3ccncc3)CC2)cc1", "melting point": "93 to 95"}
{"smiles": "COc1cc(-c2ccccc2F)c(Cl)cc1C(=O)N1Cc2ccc(C(=O)N(CC(O)CO)CC(O)C(O)CO)n2Cc2ccccc21", "note": "(configuration not stated)", "melting point": "192 to 194"}
{"smiles": "O=C1CCCc2nc3ccccc3c(NCc3cccc(F)c3)c21", "melting point": "156 to 157"}
{"smiles": "COc1ccc([N+](=O)[O-])c2c1oc1ccccc12", "melting point": "155 to 156"}
{"smiles": "CC(Oc1ccc(Oc2ccc(C(F)(F)F)cc2Cl)cc1)C(=O)O", "note": "(configuration not stated)", "melting point": "90 to 92"}
{"smiles": "O=Cc1c(F)cc(F)cc1-c1ccc(F)cc1", "melting point": "69 to 71"}
{"smiles": "CC(C)OC(=O)Nc1cccc(-c2ccnc3c(C(=O)c4ccoc4)cnn23)c1", "melting point": "127 to 129"}
{"smiles": "CCCCCCCCCCCCCCCCCCCCOC(=O)P(=O)(OC)OC", "melting point": "53 to 54"}
{"smiles": "CCOC(=O)c1ccc(NCCCCCc2ccccc2)cc1", "melting point": "63 to 64"}
{"smiles": "O[C@@H]1c2ccccc2C=C[C@H]1N1CCCC1", "note": "(relative stereo)", "melting point": "140 to 141"}
{"smiles": "COC(=O)c1cccc(Oc2cccc(-c3nn(Cc4ccc(C(F)(F)P(=O)(O)O)c(F)c4)c(=Nc4ccc(Cl)c(Cl)c4)s3)c2)c1", "melting point": "137 to 139"}
{"smiles": "CC(C)OC(=O)C1=C2SCC(=CC(=O)Sc3ccccc3)N2CC1C", "note": "(configuration not stated)", "melting point": "153 to 154"}
{"smiles": "CC(=O)Nc1ccc(-c2cc(C(=O)c3ccccc3)sc2N2CCOCC2)cc1", "melting point": 165}
{"smiles": "CCOC(=O)C(=CNc1ncnc2cc(C)c(C)cc12)C(=O)OCC", "melting point": "146 to 148"}
{"smiles": "CCOC(=O)CN(C)C(=O)c1ccccc1C(=O)c1cc(C(C)(C)C)c(O)c(C(C)(C)C)c1", "melting point": "98 to 99"}
